Measurements published in PubChem BioAssay AID330 (DTP/NCI, 2004).
Several values for one entry are separate records, joined by “and”; a condition that tells them apart may be missing. Identical values can stand only once. Toxic doses and inconclusive results are not listed.

Test system: P388 leukemia ip, CD2F1 mice, survival T/C
Experiment: NCI In Vivo Anticancer Drug Screen. Data for tumor model P388 Leukemia (intraperitoneal) in CD2F1 (CDF1) mice
Settings: endpoint: median survival time, higher = longer survival
In short: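 Mice carrying the transplanted tumor received test compound or vehicle. Survival was recorded in each group, and the value is the treated-group measurement divided by that of the vehicle-treated control group.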

[1] = dose: 50.0 mg/kg/injection, schedule: Q01DX005 (ip), vehicle: saline with Tween-80

## COc1ccc([N+]([O-])=NC#N)cc1
dose: 12.5 mg/kg/injection, schedule: Q01DX009 (ip), vehicle: Klucel (hydroxypropylcellulose) (HPC)
  T/C: 95 % of control
dose: 25.0 mg/kg/injection, schedule: Q01DX009 (ip), vehicle: Klucel (hydroxypropylcellulose) (HPC)
  T/C: 98 % of control
dose: 50.0 mg/kg/injection, schedule: Q01DX009 (ip), vehicle: Klucel (hydroxypropylcellulose) (HPC)
  T/C: 109 % of control
dose: 50.0 mg/kg/injection, schedule: Q04DX003 (ip), vehicle: Klucel (hydroxypropylcellulose) (HPC)
  T/C: 99 % of control
dose: 100.0 mg/kg/injection, schedule: Q04DX003 (ip), vehicle: Klucel (hydroxypropylcellulose) (HPC)
  T/C: 100 % of control

## O=C(NC(C(=O)NC(C(=O)O)C1CC(Cl)=NO1)C1CC(Cl)=NO1)OCC1c2ccccc2-c2ccccc21 (stereo unspecified)
dose: 5.0 mg/kg/injection, schedule: Q04DX003 (ip), vehicle: other
  T/C: 120 % of control
dose: 12.5 mg/kg/injection, schedule: Q04DX003 (ip), vehicle: other
  T/C: 150 % of control
dose: 25.0 mg/kg/injection, schedule: Q04DX003 (ip), vehicle: other
  T/C: 160 % of control
dose: 40.0 mg/kg/injection, schedule: Q04DX003 (ip), vehicle: other
  T/C: 172 % of control
dose: 50.0 mg/kg/injection, schedule: Q04DX003 (ip), vehicle: other
  T/C: 222 % of control
dose: 80.0 mg/kg/injection, schedule: Q04DX003 (ip), vehicle: other
  T/C: 201 % of control
dose: 160.0 mg/kg/injection, schedule: Q04DX003 (ip), vehicle: other
  T/C: 158 % of control

## O=C(O)CNC(=S)C(=S)NCC(=O)O
dose: 50.0 mg/kg/injection, schedule: Q01DX005 (ip), vehicle: Klucel (hydroxypropylcellulose) (HPC)
  T/C: 101 % of control
dose: 100.0 mg/kg/injection, schedule: Q01DX005 (ip), vehicle: Klucel (hydroxypropylcellulose) (HPC)
  T/C: 97 % of control
dose: 200.0 mg/kg/injection, schedule: Q01DX005 (ip), vehicle: Klucel (hydroxypropylcellulose) (HPC)
  T/C: 90 % of control

## C=CC(=O)Nc1ccc2c(c1)OCCOCCOCCO2
[1]
  T/C: 101 % of control
dose: 100.0 mg/kg/injection, schedule: Q01DX005 (ip), vehicle: saline with Tween-80
  T/C: 102 % of control
dose: 200.0 mg/kg/injection, schedule: Q01DX005 (ip), vehicle: saline with Tween-80
  T/C: 100 % of control

## C[N+]1(Cc2ccccc2)CCCC(O)C1 (stereo unspecified)
dose: 7.5 mg/kg/injection, schedule: Q01DX005 (ip), vehicle: saline with Tween-80
  T/C: 101 % of control
dose: 15.0 mg/kg/injection, schedule: Q01DX005 (ip), vehicle: saline with Tween-80
  T/C: 93 % of control
dose: 30.0 mg/kg/injection, schedule: Q01DX005 (ip), vehicle: saline with Tween-80
  T/C: 99 % of control

## OCC1(C2CCCNC2)OCCO1 (stereo unspecified)
dose: 25.0 mg/kg/injection, schedule: Q01DX005 (ip), vehicle: saline
  T/C: 100 % of control
dose: 50.0 mg/kg/injection, schedule: Q01DX005 (ip), vehicle: saline
  T/C: 111 % of control and 97 % of control
dose: 100.0 mg/kg/injection, schedule: Q01DX005 (ip), vehicle: saline
  T/C: 107 % of control
dose: 200.0 mg/kg/injection, schedule: Q01DX005 (ip), vehicle: saline
  T/C: 108 % of control

## C/C(=N\NC(=S)Nc1ccc(C(=O)O)cc1)c1ccccn1
dose: 12.5 mg/kg/injection, schedule: Q01DX005 (ip), vehicle: saline with Tween-80
  T/C: 110 % of control
dose: 25.0 mg/kg/injection, schedule: Q01DX005 (ip), vehicle: saline with Tween-80
  T/C: 112 % of control
[1]
  T/C: 109 % of control and 114 % of control

## Nc1nc(-c2ccccn2)cc2cc(Cl)ccc12
dose: 60.0 mg/kg/injection, schedule: Q01DX005 (ip), vehicle: saline with Tween-80
  T/C: 99 % of control
dose: 120.0 mg/kg/injection, schedule: Q01DX005 (ip), vehicle: saline with Tween-80
  T/C: 115 % of control

## CC1=CP(=O)(c2ccccc2)CC1 (stereo unspecified) (tested in a mixture with another compound)
dose: 60.0 mg/kg/injection, schedule: Q01DX005 (ip), vehicle: saline
  T/C: 93 % of control
dose: 120.0 mg/kg/injection, schedule: Q01DX005 (ip), vehicle: saline
  T/C: 99 % of control
dose: 240.0 mg/kg/injection, schedule: Q01DX005 (ip), vehicle: saline
  T/C: 102 % of control

## OC1c2ccccc2-c2ccccc2C1O (stereo unspecified)
dose: 100.0 mg/kg/injection, schedule: Q04DX002 (ip), vehicle: saline with Tween-80
  T/C: 101 % of control and 102 % of control
dose: 200.0 mg/kg/injection, schedule: Q04DX002 (ip), vehicle: saline with Tween-80
  T/C: 101 % of control and 97 % of control
dose: 400.0 mg/kg/injection, schedule: Q04DX002 (ip), vehicle: saline with Tween-80
  T/C: 101 % of control
